# Assay results taken from patent publication US20250085201A1, “SUBSTITUTED QUADRUPOLAR FLUORESCENT DYES FOR LIVE CELL IMAGING” (Northwestern University, priority 2023, published 2025).
# Entries after “also recorded” stand apart in the source; their conditions may differ.
# How the values were obtained:
# [1] = system: MCF-7 breast cancer cells; test: Cell uptake and live cell laser scanning confocal imaging; format: cell-based; details: for uptake and intracellular distribution (confocal images): 24 h, λex=405 nm
# Protocol: Because of its low cytotoxicity and emission (FIG. 3) in the green region (548 nm) at micromolar concentrations (ΦF=0.15), water-soluble 9·4Cl was subjected to live cell imaging with MCF-7 breast cancer cells. Living cells treated with the tetracationic cyclophane at 50 and 20 μM (FIG. 7) and as low as 1 μM (FIG. 10) concentrations, were imaged by laser scanning confocal microscopy.
# MCF-7 Breast cancer cells were grown in standard Dulbecco's modified eagle medium (DMEM), which was supplemented with 10% Fetal Bovine Serum (FBS) and 1% Penicillin-Streptomycin (Corning). Cells were seeded into an 8-well imaging coverglass chamber (manufacturer-CellVis) or multiwell plate using phenol red free DMEM about 24 h prior to treatment. Dye 9·4Cl was resuspended in deionized H2O before being diluted to their final concentrations in the cell culture media. Cells were treated with the dye for 24 h prior to imaging. Uptake assays were carried out at concentrations from 1-50 μM, including a vehicle control (untreated). For the cell growth assays, cells were treated with the dye for 24 h at a range of concentrations from 0.1-50 μM.
# Confocal imaging was performed on a Leica SP8 laser scanning confocal microscope on a DMi8 […] stand with LAS X software in the Biological Imaging Facility (BIF) at Northwestern University. Uptake images were taken with a 63×/1.4 NA objective, scanning at a zoom of two with a pinhole of one Airy unit (AU) at 600 Hz with a galvo scanner and line averaging of two. Images were 92.35×92.35 μm (1024×1024) with 10 slices in the z direction with a step size of 0.3 μm (total stack volume 3.0 μm). A single excitation wavelength (405 nm) was used at a power of approximately 14 μW. For the emission collection, a Leica spectral Hybrid (HyD) detector set to collect a wavelength range of 500-650 nm (with a gain of 24%) was used. A transmitted light image was also collected simultaneously using the timeline photomultiplier (TL-PMT). Images were processed with FIJI/ImageJ (NIH) and settings were kept consistent throughout the series of images. Images presented are maximum intensity projections.
# [2] = Solubility (qualitative); format: physicochemical; details: Cl− salt
# [3] = Transient absorption (fsTA/nsTA) and time-resolved fluorescence spectroscopy; format: physicochemical; details: in H2O
# Description: The excited-state properties of these quadrupolar dyes were investigated using transient absorption (TA) spectroscopy. The TA data of dyes 1-4 and 6 in MeCN with lex=350 nm (FIGS. 9-12 and 15) show similar spectra with the same general electronic evolution, though with differing kinetics. Following excitation, strong excited-state absorption features appear between ˜450-500 nm along with a strong single peak in the near-infrared region, both of which are associated with Sn←S1 absorptions. The visible bands redshift over the following ˜100 ps, while the near-infrared band peaks first blueshift in the initial ˜10 ps before settling. These near-infrared absorption bands are similar to those observed^59,60 in extended bipyridinium compounds. Following these shifts, the excited states decay via emission with lifetimes between 3-4 ns as confirmed by time-resolved fluorescence (TRF) spectroscopy. The spectral shape of the transient species is generally maintained throughout their lifetimes, implying that the dynamics in each dye all occur on a single electronic excited state (S1) prior to emission. The spectral shifts at early times may arise due to excited-state symmetry breaking^77-78 in the quadrupolar dyes, wherein fluctuations in the instantaneous electrostatic environment afforded by the solvent transiently favor wavefunction localization on one side of the symmetric molecule, creating an excited state with a large dipole moment that is associated with the Stokes shift observed^79 in the fluorescence spectra. This localization can lead to changes in the transient absorption spectra as a result of the breakdown^42,80 of the Laporte rule. The shifts at longer times may arise from solvent or structural relaxation of the dyes.
# Steady-state and time-resolved emission spectra for dyes 1-6, 7·2PF6 and 9·4PF6 were acquired using a HORIBA Fluorolog-3 spectrofluorometer, equipped with a time-correlated single photon counting (TCSPC) module (diode laser excitation at λ=375 nm) and an integrating sphere, which was used for absolute photo-luminescence quantum yield determinations. Picosecond time-resolved fluorescence measurements were recorded using a commercial direct-diode-pumped 100 kHz amplifier (Spirit 1040-HE, Spectra-Physics), producing a fundamental beam of 1040 nm (350 fs, 12 W) which was used to pump a non-collinear optical parametric amplifier (Spirit-NOPA, SpectraPhysics) capable of delivering tunable, high-repetition-rate pulses with pulse widths as short as sub-20 fs. Dyes 1-6, 7·2PF6 and 9·4PF6 were excited with 350 nm, 2 nJ laser pulses. Fluorescence was detected using a Hamamatsu C4780 Streakscope as previously described in the literature. Samples were prepared in 2-mm quartz cuvettes. All data were acquired in the single-photon-counting mode using the Hamamatsu HPD-TA software. The temporal resolution was approximately 2% of the sweep window. Single wavelength kinetic analysis was performed using a nonlinear least-squares fit to a sum of exponentials convoluted with an instrument response function. Visible and near-infrared femtosecond and nanosecond transient absorption (fsTA and nsTA, respectively) spectroscopies were performed following descriptions already recorded in the literature. The 330 nm, ˜100 fs pump pulses were generated at 1 μJ per pulse using a commercial collinear optical parametric amplifier (TOPAS-Prime, Light-Conversion, Ltd.); 414-nm pump pulses were obtained by second-harmonic generation of the 828 nm fundamental. The pump polarization was randomized using a commercial depolarizer (DPU-25-A, Thorlabs, Inc.) to eliminate any orientational dynamics resulting from the experiment. Spectra were collected on commercial spectrometers (customized Ultrafast Systems Helios and EOS spectrometers, for fsTA and nsTA, respectively) for each time window. All samples were stirred to avoid localized heating or degradation effects. The optical density was maintained at 0.6 for all samples. […]
# [4] = Steady-state UV/Vis absorption and fluorescence emission spectra; format: physicochemical; details: micromolar concentrations
# Protocol: Fluorescent dyes 1-6, 7·2PF6, 8·2PF6, 9·4PF6 and 9·4Cl were dissolved in THF (1-5), MeCN (6, 7·2PF6, 8·2PF6 and 9.4PF6) and H2O (9.4Cl), respectively, to afford 10 μM solutions prior to spectroscopic analysis. For comparison, their normalized (i) UV/Vis absorption (FIG. 2) and (ii) the fluorescence emission (FIG. 3) spectra of quadrupolar dyes are overlayed, displaying a large range of S1 absorbance and emission maxima, which rely highly on their quadrupolarity that is correlated to the electron-deficiency of the ARs.
# Fluorescent dyes were dissolved in the appropriate solvents to afford 1 mM solutions prior to spectroscopic analysis. A portion of 30 μL of a 1 mM solution was diluted by adding a selected solvent to a sample with a total volume of 3000 μL, affording a 1×10^−5 M solution. UV/Vis Absorption spectra were recorded in glass cuvettes on a UV-3600 Shimadzu spectrophotometer. Steady-state emission spectra were acquired in quartz cuvettes with optical path-lengths of 10 mm containing the solution being analyzed using a HORIBA Fluoromax4 spectrofluorometer, which was equipped with an integrating sphere for determining the absolute photoluminescence quantum yield.
smiles,measurement,setting,value
COc1cc2c(OC)cc1-c1cc[n+](cc1)Cc1ccc(cc1)C[n+]1ccc(cc1)-c1cc(OC)c(cc1OC)-c1cc[n+](cc1)Cc1ccc(cc1)C[n+]1ccc-2cc1 [9·4Cl],uptake and intracellular distribution (confocal images),"[1]; 50 μM and 10 μM, emission 500-650 nm",taken up by living cells and concentrated in intracellular compartments
same,uptake and intracellular distribution (confocal images),"[1]; MCF-7, 1 μM, emission 500-650 nm",taken up by living cells and concentrated in intracellular compartments
same,fluorescence in cells,"[1]; MCF-7, 405 nm laser excitation, emission 500-650 nm",fluoresces brightly in cells
same,cell uptake,"[1]; MCF-7 cells, 1-50 μM",readily taken up by cells
same,cell uptake at low treatment concentrations,[1]; as low as 1 μM,readily taken up by cells
same,solubility in H2O,[2],readily soluble; also recorded: Water soluble
same,rate constant k2 from TA data,[3],(188 ± 4 ps)^−1 (ps)^−1
same,rate constant k3 from TA data,[3],(3.45 ± 0.01 ns)^−1 (ns)^−1
same,radiative decay rate constant kR,[3]; kR = kobsΦF,(17.9 ± 0.6 ns)^−1 (ns)^−1
same,emission in the green region,[4],548 nm
